{
  "source": "patent US20100047371A1",
  "about": "“COMPOSITIONS AND METHODS FOR ORAL CANCER CHEMOPREVENTION USING BERRY PREPARATIONS AND EXTRACTS” (priority 2006, published 2010)",
  "key": {"[1]": {"assay": "Human pharmacokinetic study: anthocyanins in saliva and peripheral blood after topical gel application", "type": "in vivo", "details": "for Anthocyanin concentration in saliva / Anthocyanin concentration in peripheral blood: 1.0 g 5% FBR Gel, pH 6.5 topical to floor of mouth; for Anthocyanin concentration in saliva: saliva collected 2-5 min after application; for Anthocyanin concentration in peripheral blood: blood drawn five minutes after application", "protocol": "Anthocyanin content in sera, saliva, and tissue explants was evaluated by an HPLC-MS assay. The respective samples (sera, saliva or tissue homogenates) were dissolved in 90% solvent A (water plus 1% formic acid) and 10% solvent B (acetonitrile plus 1% formic acid) and then separated on a Symmetry C18 reversed-phase column and analyzed using a Waters 2695 gradient HPLC separation module equipped with a 996 photodiode-array (PDA) UV/visible absorbance detector (Milford, Mass.). The solvent system consisted of a step gradient from 90% A to 50% B over 15 minutes, and the absorption spectra were recorded from 200-800 nm with the inline PDA detector. Mass spectrometry was conducted on a quadrupole ion tunnel mass spectrometer equipped with a Z-spray ESI source. Explant protein levels were determined by the Lowry method, using bovine γ-globulin as the standard protein [Lippman et al., 1993].\nNext, evaluation of anthocyanin uptake into human oral mucosa from FBR gels prepared as described in Example 1 was undertaken. For in-vivo studies, participation of human subjects was conducted in accordance with an IRB approved protocol. […] For the phamacokinetic analyses, nine consenting adult volunteers dried the anterior floor of their mouth, placed 1.0 g of 5% berry gel (pH 6.5), and massaged the gel in place for 30 seconds to facilitate uptake. Two minutes after gel application saliva was collected for the next three minutes. Peripheral blood was drawn five minutes after gel application. Following clotting, sera samples were collected, and both the sera and saliva samples were stored at −80° C. until LC-MS analysis as described below.\nAll nine participants had detectable anthocyanin levels of three anthocyanins (cyanidin 3-rutinoside, cyanidin 3-xylosylrutinoside, cyanidin 3-glucoside) in either their saliva or blood, and 4 donors had detectable levels of two anthocyanins (cyanidin 3-rutinoside and cyanidin 3-xylosylrutinoside) in their peripheral blood. Saliva from eight of the nine donors contained detectable levels of either two (cyanidin 3-rutinoside and cyanidin 3-xylosylrutinoside-4 donors) or three anthocyanins (4 donors)."}, "[2]": {"test_system": "Human Oral Mucosa Explant Tissues", "assay": "Effect of final gel pH on anthocyanin uptake into human oral mucosa explant tissues", "type": "in vitro ADME", "details": "10% w/w FBR gel", "protocol": "Anthocyanin content in sera, saliva, and tissue explants was evaluated by an HPLC-MS assay. The respective samples (sera, saliva or tissue homogenates) were dissolved in 90% solvent A (water plus 1% formic acid) and 10% solvent B (acetonitrile plus 1% formic acid) and then separated on a Symmetry C18 reversed-phase column and analyzed using a Waters 2695 gradient HPLC separation module equipped with a 996 photodiode-array (PDA) UV/visible absorbance detector (Milford, Mass.). The solvent system consisted of a step gradient from 90% A to 50% B over 15 minutes, and the absorption spectra were recorded from 200-800 nm with the inline PDA detector. Mass spectrometry was conducted on a quadrupole ion tunnel mass spectrometer equipped with a Z-spray ESI source. Explant protein levels were determined by the Lowry method, using bovine γ-globulin as the standard protein [Lippman et al., 1993]. Tissue explants, specifically human oral mucosal explants, were used to determine the in vitro effects of FBR content and pH on anthocyanin uptake. Human oral tissues for the tissue explant studies were obtained from consenting volunteers who were undergoing elective oral surgery procedures. To confirm “no pathologic diagnosis”, a portion of each of these tissues was submitted for light microscopic evaluation. […] Tissues for explant experiments were immediately placed in an artificial saliva transport medium, which also served as the incubation medium for the gel absorption studies. The composition of the artificial saliva used for tissue transport and incubation was (final concentrations): sodium carboxymethylcellulose (0.5%), sorbitol (165 mM), NaCl (14 mM), KCl (16 mM), calcium chloride dehydrate (1.0 mM), MgCl2 (0.63 mM), Trizma hydrochloride (2.0 mM). Tissues from eight donors were used for preliminary studies to compare the penetration of anthocyanins from the 5% berry gel and the 10% FBR gel, both at a final pH of 6.5. In order to account for heterogeneity among human donors, tissue samples were hemisected. One tissue portion treated with 5% and the other with 10% FBR gels. One gram of gel (containing either 5% or 10% w/w FBR) was placed on the epithelial surface of the explant, followed by gently rubbing of the site for 30 seconds to facilitate uptake. Explants were then placed into artificial saliva, incubated for 30 minutes (37° C., 5% CO2), and then frozen at −80° C. until HPLC-mass spectroscopy analyses as previously reported [Rodrigo et al., in press]. Tissue preparation for HPLC analyses consisted of homogenization of the entire oral mucosal specimen, removal of an aliquot for sample protein level determination, followed by the addition of collagenase type II (0.1 mg/mL, GIBCO, Grand Island, N.Y.) and 1% formic acid. Samples were then placed on a Sep Pack (Millipore, Billerica, Mass.), eluted with methanol, and dried under argon gas. Additional oral mucosal explant studies were conducted to compare the effect of FBR gel pH on absorption into oral mucosal explants. Tissues from eleven donors were used for these studies, and handling was as described above with the exception that all gels contained 10% w/w FBR and were formulated at a final pH of 3.5 or 6.5. […] Large differences (up to 15-fold) in detectable anthocyanin levels were found in the gel treated donor tissues; findings that likely reflect the extensive heterogeneity within human tissues that affects tissue penetrative abilities."}, "[3]": {"details": "average of eleven explant samples"}},
  "data": [
    {"smiles": "C[C@@H]1O[C@@H](OC[C@H]2O[C@@H](Oc3cc4c(O)cc(O)cc4[o+]c3-c3ccc(O)c(O)c3)[C@H](O)[C@@H](O)[C@@H]2O)[C@H](O)[C@H](O)[C@H]1O", "note": "[cyanidin 3-rutinoside]", "values": [
      {"measurement": "number of donors with detectable levels in peripheral blood", "setting": "[1]; of nine participants, 5% berry gel (pH 6.5), five minutes after application", "result": 4, "unit": "donors"},
      {"measurement": "Anthocyanin concentration in saliva", "setting": "[1]; patient 101", "result": 3.5, "unit": "pmol/mL"},
      {"measurement": "Anthocyanin concentration in saliva", "setting": "[1]; patient 102", "result": 1.7, "unit": "pmol/mL"},
      {"measurement": "Anthocyanin concentration in peripheral blood", "setting": "[1]; patient 103", "result": 2.3, "unit": "pmol/mL"},
      {"measurement": "Anthocyanin concentration in saliva", "setting": "[1]; patient 104", "result": 4.6, "unit": "pmol/mL"},
      {"measurement": "Anthocyanin concentration in peripheral blood", "setting": "[1]; patient 105", "result": 7.4, "unit": "pmol/mL"},
      {"measurement": "Anthocyanin concentration in saliva", "setting": "[1]; patient 105", "result": 8.3, "unit": "pmol/mL"},
      {"measurement": "Anthocyanin concentration in peripheral blood", "setting": "[1]; patient 106", "result": 5.6, "unit": "pmol/mL"},
      {"measurement": "Anthocyanin concentration in saliva", "setting": "[1]; patient 106", "result": 6.1, "unit": "pmol/mL"},
      {"measurement": "Anthocyanin concentration in peripheral blood", "setting": "[1]; patient 107", "result": 5.8, "unit": "pmol/mL"},
      {"measurement": "Anthocyanin concentration in saliva", "setting": "[1]; patient 107", "result": 9.3, "unit": "pmol/mL"},
      {"measurement": "Anthocyanin concentration in saliva", "setting": "[1]; patient 108", "result": 4.2, "unit": "pmol/mL"},
      {"measurement": "Anthocyanin concentration in saliva", "setting": "[1]; patient 109", "result": 2.2, "unit": "pmol/mL"},
      {"measurement": "Anthocyanin uptake, Gel pH 3.5, Avg. ± SEM", "setting": "[2]; [3]", "result": 31.9, "unit": "pmol per mg tissue"},
      {"measurement": "Anthocyanin uptake, Gel pH 6.5, Avg. ± SEM", "setting": "[2]; [3]", "result": 113.0, "unit": "pmol per mg tissue"},
      {"measurement": "% change 3.5 to 6.5, Avg. ± SEM", "setting": "[2]; average of explant samples", "result": 956.3, "unit": "%"},
      {"measurement": "% change 3.5 to 6.5", "setting": "[2]; explant sample 001", "result": 474.1, "unit": "%"},
      {"measurement": "Anthocyanin uptake, Gel pH 3.5", "setting": "[2]; explant sample 001", "result": 116.4, "unit": "pmol per mg tissue"},
      {"measurement": "Anthocyanin uptake, Gel pH 6.5", "setting": "[2]; explant sample 001", "result": 668.3, "unit": "pmol per mg tissue"},
      {"measurement": "% change 3.5 to 6.5", "setting": "[2]; explant sample 002", "result": 627.2, "unit": "%"},
      {"measurement": "Anthocyanin uptake, Gel pH 3.5", "setting": "[2]; explant sample 002", "result": 9.3, "unit": "pmol per mg tissue"},
      {"measurement": "Anthocyanin uptake, Gel pH 6.5", "setting": "[2]; explant sample 002", "result": 67.8, "unit": "pmol per mg tissue"},
      {"measurement": "% change 3.5 to 6.5", "setting": "[2]; explant sample 003", "result": "−14.8", "unit": "%"},
      {"measurement": "Anthocyanin uptake, Gel pH 3.5", "setting": "[2]; explant sample 003", "result": 34.3, "unit": "pmol per mg tissue"},
      {"measurement": "Anthocyanin uptake, Gel pH 6.5", "setting": "[2]; explant sample 003", "result": 29.2, "unit": "pmol per mg tissue"},
      {"measurement": "% change 3.5 to 6.5", "setting": "[2]; explant sample 004", "result": "−64.4", "unit": "%"},
      {"measurement": "Anthocyanin uptake, Gel pH 3.5", "setting": "[2]; explant sample 004", "result": 26.3, "unit": "pmol per mg tissue"},
      {"measurement": "Anthocyanin uptake, Gel pH 6.5", "setting": "[2]; explant sample 004", "result": 9.4, "unit": "pmol per mg tissue"},
      {"measurement": "% change 3.5 to 6.5", "setting": "[2]; explant sample 005", "result": "−20.0", "unit": "%"},
      {"measurement": "Anthocyanin uptake, Gel pH 3.5", "setting": "[2]; explant sample 005", "result": 3.5, "unit": "pmol per mg tissue"},
      {"measurement": "Anthocyanin uptake, Gel pH 6.5", "setting": "[2]; explant sample 005", "result": 2.8, "unit": "pmol per mg tissue"},
      {"measurement": "% change 3.5 to 6.5", "setting": "[2]; explant sample 006", "result": 362.1, "unit": "%"},
      {"measurement": "Anthocyanin uptake, Gel pH 3.5", "setting": "[2]; explant sample 006", "result": 45.7, "unit": "pmol per mg tissue"},
      {"measurement": "Anthocyanin uptake, Gel pH 6.5", "setting": "[2]; explant sample 006", "result": 211.1, "unit": "pmol per mg tissue"},
      {"measurement": "% change 3.5 to 6.5", "setting": "[2]; explant sample 007", "result": 45.1, "unit": "%"},
      {"measurement": "Anthocyanin uptake, Gel pH 3.5", "setting": "[2]; explant sample 007", "result": 5.6, "unit": "pmol per mg tissue"},
      {"measurement": "Anthocyanin uptake, Gel pH 6.5", "setting": "[2]; explant sample 007", "result": 8.1, "unit": "pmol per mg tissue"},
      {"measurement": "% change 3.5 to 6.5", "setting": "[2]; explant sample 008", "result": 8905.1, "unit": "%"},
      {"measurement": "Anthocyanin uptake, Gel pH 3.5", "setting": "[2]; explant sample 008", "result": 0.4, "unit": "pmol per mg tissue"},
      {"measurement": "Anthocyanin uptake, Gel pH 6.5", "setting": "[2]; explant sample 008", "result": 35.1, "unit": "pmol per mg tissue"},
      {"measurement": "% change 3.5 to 6.5", "setting": "[2]; explant sample 009", "result": 395.1, "unit": "%"},
      {"measurement": "Anthocyanin uptake, Gel pH 3.5", "setting": "[2]; explant sample 009", "result": 43.9, "unit": "pmol per mg tissue"},
      {"measurement": "Anthocyanin uptake, Gel pH 6.5", "setting": "[2]; explant sample 009", "result": 207.4, "unit": "pmol per mg tissue"},
      {"measurement": "% change 3.5 to 6.5", "setting": "[2]; explant sample 010", "result": "−91.4", "unit": "%"},
      {"measurement": "Anthocyanin uptake, Gel pH 3.5", "setting": "[2]; explant sample 010", "result": 37.1, "unit": "pmol per mg tissue"},
      {"measurement": "Anthocyanin uptake, Gel pH 6.5", "setting": "[2]; explant sample 010", "result": 3.2, "unit": "pmol per mg tissue"},
      {"measurement": "% change 3.5 to 6.5", "setting": "[2]; explant sample 011", "result": "−98.7", "unit": "%"},
      {"measurement": "Anthocyanin uptake, Gel pH 3.5", "setting": "[2]; explant sample 011", "result": 28.7, "unit": "pmol per mg tissue"},
      {"measurement": "Anthocyanin uptake, Gel pH 6.5", "setting": "[2]; explant sample 011", "result": 0.4, "unit": "pmol per mg tissue"}
    ]}
  ]
}
